The structures appear in SMILES notation.

The target in this assay is T1, human β-Secretase (Homo sapiens, UniProt P56817).
T1 construct: The soluble part of the human β-Secretase (AA 1-AA 460) was cloned; made in house
T1 sequence (P56817 22-460): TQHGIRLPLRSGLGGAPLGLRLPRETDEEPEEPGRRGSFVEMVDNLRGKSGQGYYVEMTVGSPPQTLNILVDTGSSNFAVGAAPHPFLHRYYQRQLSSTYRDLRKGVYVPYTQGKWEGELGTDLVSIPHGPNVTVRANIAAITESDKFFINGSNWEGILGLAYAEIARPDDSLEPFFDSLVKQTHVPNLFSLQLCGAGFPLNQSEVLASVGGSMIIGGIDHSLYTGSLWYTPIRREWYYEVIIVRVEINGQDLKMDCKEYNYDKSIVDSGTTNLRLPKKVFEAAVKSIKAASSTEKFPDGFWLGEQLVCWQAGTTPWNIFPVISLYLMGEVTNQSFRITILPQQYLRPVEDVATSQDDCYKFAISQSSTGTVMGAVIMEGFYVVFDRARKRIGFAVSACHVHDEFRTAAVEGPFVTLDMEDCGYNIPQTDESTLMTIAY
The experiment in a line: TR-FRET assay. The assay is classed as biochemical. Particulars: soluble human β-Secretase (sBACE-Fc), substrate (Europium)[…](Qsy7) 100 nM, pH 4.5. The procedure:
The enzyme used in the IGEN Cleavage-, Fluorescent-, TR-FRET- and BiaCore assays is described as follows: The soluble part of the human β-Secretase (AA 1-AA 460) was cloned into the […]-Fc10-1-IRES-GFP-neoK mammalian expression vector. The gene was fused to the Fc domain of IgG1 (affinity tag) and stably cloned into HEK 293 cells. Purified sBACE-Fc is stored in Tris buffer, pH 9.2 and has a purity of 95%. TR-FRET Assay Enzyme was diluted to 6 μg/mL and the substrate ([…]7) to 200 nM in reaction buffer (NaAcetate, chaps, triton x-100, EDTA pH 4.5). Compounds were diluted to the desired concentration in dimethyl sulfoxide (final dimethyl sulfoxide concentration in assay is 5%). […] Enzyme (9 μL) and 1 μL of compound in dimethyl sulfoxide was added to the plate, mixed and pre-incubated for 10 min. Substrate (10 μL) was added and the reaction proceeded in the dark for 15 min at RT. The reaction was stopped with the addition of 7 μL NaAcetate, pH 9.
On the technique in general: Time-resolved FRET reads energy transfer from a long-lived donor to a nearby acceptor.
As for `COc1ccc(C2(c3cccc(-c4cncnc4)c3)N=C(N)N3CC(S(C)(=O)=O)CN=C32)cc1` (mixture of isomers) [Example 28, 8-(4-Methoxyphenyl)-3-(methylsulfonyl)-8-(3-pyrimidin-5-ylphenyl)-2,3,4,8-tetrahydroimidazol[1,5-a]pyrimidin-6-amine 2.0 acetate], the midpoint of inhibition, the IC50, lay at 253 nM.

On to `COc1ccc(C2(c3cccc(-c4cncnc4)c3)N=C(N)N3CC(O)CN=C32)cc1` (mixture of isomers) [Example 30, 6-Amino-8-(4-methoxyphenyl)-8-(3-pyrimidin-5-ylphenyl)-2,3,4,8-tetrahydroimidazo[1,5-a]pyrimidin-3-ol], for which 119 nM corresponded to half-maximal inhibition (IC50).

Consider `COc1ccc(C2(c3cccc(-c4cncnc4)c3)N=C(N)N3CC(OC)CN=C32)cc1` (mixture of isomers) [Example 32, 3-Methoxy-8-(4-methoxyphenyl)-8-(3-pyrimidin-5-ylphenyl)-2,3,4,8-tetrahydroimidazo[1,5-a]pyrimidin-6-amine], for which the half-inhibitory concentration (IC50) (commonly the concentration that gives 50% inhibition) was 571 nM.

In turn, `COc1ccc(C2(c3cccc(-c4cncnc4)c3)N=C(N)N3CC(F)CN=C32)cc1` (mixture of isomers) [Example 50, 3-Fluoro-8-(4-methoxyphenyl)-8-(3-pyrimidin-5-ylphenyl)-2,3,4,8-tetrahydroimidazo[1,5-a]pyrimidin-6-amine 4.0 acetate] gave an IC50 of 59 nM.

Take `COc1ccc(C2(c3cccc(-c4cccnc4)c3)N=C(N)N3CC(F)(F)CN=C32)cc1` (centres unmarked) [Example 40, 3,3-Difluoro-8-(4-methoxyphenyl)-8-(3-pyridin-3-ylphenyl)-2,3,4,8-tetrahydroimidazo[1,5-a]pyrimidin-6-amine 0.75 acetate]: inhibition was half-maximal at 76 nM (IC50).

Molecule `COc1ccc(C2(c3cccc(-c4cncc(OC)c4)c3)N=C(N)N3CC(F)(F)CN=C32)cc1` (centres unmarked) [Example 41, 3,3-Difluoro-8-(4-methoxyphenal)-8-[3-(5-methoxypyridin-3-yl)phenyl]-2,3,4,8-tetrahydroimidazo[1,5-a]pyrimidin-6-amine 0.75 acetate] returned an IC50 of 30 nM.

On to `COc1ccc(C2(c3cccc(-c4cccnc4F)c3)N=C(N)N3CC(F)(F)CN=C32)cc1` (centres unmarked) [Example 42, 3,3-Difluoro-8-[3-(2-fluoropyridin-3-yl)phenyl]-8-(4-methoxyphenyl)-2,3,48-tetrahydroimidazo[1,5-a]pyrimidin-6-amine 0.75 acetate], for which inhibition was half-maximal at 29 nM (IC50).

For the molecule `COc1cncc(-c2cccc(C3(c4ccncc4)N=C(N)N4CC(F)(F)CN=C43)c2)c1` (centres unmarked) [Example 43, 3,3-Difluoro-8-[3-(5-methoxypyridin-3-yl)phenyl]-8-pyridin-4-yl-2,3,4,8-tetrahydroimidazo[1,5-a]pyrimidin-6-amine acetate], half-maximal inhibition (IC50) was put at 41 nM.

Molecule `NC1=NC(c2ccncc2)(c2cccc(-c3cccnc3F)c2)C2=NCC(F)(F)CN12` (centres unmarked) [Example 44, 3,3-Difluoro-8-[3-(2-fluoropyridin-3-yl)phenyl]-8-pyridin-4-yl-2,3,4,8-tetrahydroimidazo[1,5-a]pyrimidin-6-amine 0.75 acetate] had an IC50 of 120 nM.

Consider `NC1=NC(c2ccncc2)(c2cccc(-c3cncc(F)c3)c2)C2=NCC(F)(F)CN12` (centres unmarked) [Example 47, 3,3-Difluoro-8-[3-(5-fluoropyridin-3-yl)phenyl]-8-pyridin-4-yl-2,3,4,8-tetrahydroimidazo[1,5-a]pyrimidin-6-amine acetate], for which the IC50 is 59 nM.

`CN(C)C(=O)c1cccc(C2(c3cccc(-c4cccnc4F)c3)N=C(N)N3CC(F)(F)CN=C32)c1` (centres unmarked) [Example 69, 3-{6-Amino-3,3-difluoro-8-[3-(2-fluoropyridin-3-yl)phenyl]-2,3,4,8-tetrahydroimidazo[1,5-a]pyrimidin-8-yl}-N,N-dimethylbenzamide] displayed an IC50 of 2300 nM.

Regarding `CN(C)C(=O)c1ccc(C2(c3cccc(-c4cccnc4F)c3)N=C(N)N3CC(F)(F)CN=C32)cc1` (centres unmarked) [Example 70, 4-{6-Amino-3,3-difluoro-8-[3-(2-fluoropyridin-3-yl)phenyl]-2,3,4,8-tetrahydroimidazo[1,5-a]pyrimidin-8-yl}-N,N-dimethylbenzamide], the IC50 was found to be 2100 nM.

Molecule `COc1ccc(C2(c3ccc(F)c(-c4cccnc4F)c3)N=C(N)N3CC(F)(F)CN=C32)cc1C` (centres unmarked) [Example 87, 3,3-Difluoro-8-(4-fluoro-3-(2-fluoropyridin-3-yl)phenyl)-8-(4-methoxy-3-methylphenyl)-2,3,4,8-tetrahydroimidazo[1,5-a]pyrimidin-6-amine acetate] had an IC50 of 41 nM.

As to `COc1ccc(C2(c3ccc(F)c(-c4cncnc4)c3)N=C(N)N3CC(F)(F)CN=C32)cc1C` (centres unmarked) [Example 88, 3,3-Difluoro-8-(4-fluoro-3-(pyrimidin-5-yl)phenyl)-8-(4-methoxy-3-methylphenyl)-2,3,48-tetrahydroimidazo[1,5-a]pyrimidin-6-amine acetate], the IC50 was 92 nM.

The record behind these values is patent US20080214577A1, “New Compounds 320” (AstraZeneca AB, priority 2006, published 2008).
